Source: US9879032B2, “Pyridine compounds” (Daiichi Sankyo Company, Limited, priority 2015, dated 2018)

molecular target: human TNAP (Homo sapiens (Human), UniProt P05186); assay: Inhibitory test of TNAP activity (pNPP substrate, p-nitrophenol production); assay type: biochemical; conditions: inhibition of human TNAP activity, incubated at room temperature for 60 minutes
Procedure: COS 1 cells (DS Pharma Biomedical Co., Ltd.) were transfected with human TNAP (OriGene Technologies, Inc.) using Lipofectamine LTX & Plus reagent (Invitrogen Corp.). On the next day, the medium was replaced with a fresh medium, and the cells were cultured in an incubator for 3 days. After 3 days, the culture supernatant was collected and concentrated by centrifugation at 5000 G for 30 minutes using Amicon 14, 10^4 cut (Merck Millipore). The concentrated culture supernatant was dialyzed against 5 L of 50 mM Tris/200 mM NaCl/1 mM MgCl2/20 μM ZnCl2 twice and used as an enzyme source (enzyme solution). The substrate pNPP (ProteoChem Inc.) was adjusted to 3.1 mM with Milli-Q water, and a solution of each test compound dissolved in dimethyl sulfoxide (DMSO; Wako Pure Chemical Industries, Ltd.) by 6 serial dilutions at a 5-fold common ratio from 100 μM, or DMSO was added thereto at a final concentration of 1% by volume. The enzyme solution adjusted to 2 μg/mL with an assay buffer (200 mM Tris/2 mM MgCl2/0.04 mM ZnCl2/0.01% Tween 20) was added in the same amount of the substrate solution and incubated at room temperature for 60 minutes. Then, the absorbance (ABS: 405 nm) was measured using a microplate reader (model plus 384, Molecular Devices, LLC), and the concentration of produced p-nitrophenol was calculated.

Chain of human TNAP (P05186 18-502): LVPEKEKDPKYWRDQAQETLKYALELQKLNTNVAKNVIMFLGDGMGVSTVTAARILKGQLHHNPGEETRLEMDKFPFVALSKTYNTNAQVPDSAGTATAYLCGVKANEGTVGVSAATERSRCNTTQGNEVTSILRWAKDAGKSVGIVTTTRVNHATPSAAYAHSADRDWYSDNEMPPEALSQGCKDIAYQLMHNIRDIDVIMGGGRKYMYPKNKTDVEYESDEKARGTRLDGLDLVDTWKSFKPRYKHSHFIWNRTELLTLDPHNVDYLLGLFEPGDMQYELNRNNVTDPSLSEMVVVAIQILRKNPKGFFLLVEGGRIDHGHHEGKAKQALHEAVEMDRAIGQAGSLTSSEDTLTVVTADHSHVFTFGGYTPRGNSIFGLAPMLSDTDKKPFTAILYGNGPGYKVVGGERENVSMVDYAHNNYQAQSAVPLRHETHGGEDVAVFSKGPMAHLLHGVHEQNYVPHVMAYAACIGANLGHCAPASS

| Compound | IC50 [nM] |
| --- | --- |
| COc1ccc(Cl)cc1S(=O)(=O)Nc1cnc2c(c1)C(=O)N[C@@H](C(C)C)CO2 [Example 26, 5-Chloro-2-methoxy-N-[(3S)-5-oxo-3-(propan-2-yl)-2,3,4,5-tetrahydropyrido[3,2-f][1,4]oxazepin-7-yl]benzenesulfonamide] | 8.7 |
| CC[C@H]1COc2ncc(NS(=O)(=O)c3cc(Cl)ccc3OC)cc2C(=O)N1 [Example 25, 5-Chloro-N-[(3S)-3-ethyl-5-oxo-2,3,4,5-tetrahydropyrido[3,2-f][1,4]oxazepin-7-yl]-2-methoxybenzenesulfonamide] | 1.7 |
| O=C1N[C@@H](CO)COc2ncc(NS(=O)(=O)c3cc(F)ccc3OC(F)(F)F)cc21 [Example 32, 5-Fluoro-N-[(3S)-3-(hydroxymethyl)-5-oxo-2,3,4,5-tetrahydropyrido[3,2-f][1,4]oxazepin-7-yl]-2-(trifluoromethoxy)benzenesulfonamide] | 4.1 |
| COc1ccc(F)cc1S(=O)(=O)Nc1cnc2c(c1)C(=O)N(C)[C@H](C)CO2 [Example 21, N-[(3R)-3,4-Dimethyl-5-oxo-2,3,4,5-tetrahydropyrido[3,2-f][1,4]oxazepin-7-yl]-5-fluoro-2-methoxybenzenesulfonamide] | 46 |
| COc1ccc(Cl)cc1S(=O)(=O)Nc1cnc2c(c1)C(=O)N(C)[C@H](C)CO2 [Example 20, 5-Chloro-N-[(3R)-3,4-dimethyl-5-oxo-2,3,4,5-tetrahydropyrido[3,2-f][1,4]oxazepin-7-yl]-2-methoxybenzenesulfonamide] | 27.1 |
| COc1ccc(F)cc1S(=O)(=O)Nc1cnc2c(c1)C(=O)NCCO2 [Example 10, 5-Fluoro-2-methoxy-N-(5-oxo-2,3,4,5-tetrahydropyrido[3,2-f][1,4]oxazepin-7-yl)benzenesulfonamide] | 4 |
| COc1ccc(Cl)cc1S(=O)(=O)Nc1cnc2c(c1)C(=O)N[C@@H](CO)CO2 [Example 27, 5-Chloro-N-[(3S)-3-(hydroxymethyl)-5-oxo-2,3,4,5-tetrahydropyrido[3,2-f][1,4]oxazepin-7-yl]-2-methoxybenzenesulfonamide] | 1.5 |
| COc1ccc(Cl)cc1S(=O)(=O)Nc1cnc2c(c1)C(=O)NC1(CC1)CO2 [Example 35, 5-Chloro-2-methoxy-N-(5′-oxo-4′,5′-dihydrospiro[cyclopropane-1,3′-pyrido[3,2-f][1,4]oxazepin]-7′-yl)benzenesulfonamide] | 1.1 |
| COc1ccc(F)cc1S(=O)(=O)Nc1cnc2c(c1)C(=O)N(C)[C@@H](C)CO2 [Example 19, N-[(3S)-3,4-Dimethyl-5-oxo-2,3,4,5-tetrahydropyrido[3,2-f][1,4]oxazepin-7-yl]-5-fluoro-2-methoxybenzenesulfonamide] | 6.4 |

tested on: plasma ALP (80-90% containing TNAP); assay: Inhibitory test of plasma TNAP activity in B6 mouse; assay type: in vivo; conditions: administered orally, average inhibition from 0 hour to 6 hours after administration
Procedure: After blood sampling from the tail vein using a heparin-treated hematocrit capillary tube (EM Meister Hematocrit Capillary Tube, AS ONE Corp.) (as the sample before compound administration), each test compound suspended in a 0.5% methylcellulose solution (powder purchased from Wako Pure Chemical Industries, Ltd. was adjusted to 0.5% with Otsuka distilled water) was administered orally to the mouse. 1, 2, 4, 6, and 24 hours after the administration, blood was collected from the tail vein using a heparin-treated hematocrit capillary tube to obtain a plasma sample. The plasma sample was added to an assay buffer (1 M Tris, 1 M MgCl2, 20 mM ZnCl2, and water, pH 7.5), and the mixture was left standing for 5 minutes. Then, the absorbance at 405 nm was measured and used as a blank. The substrate pNPP was added to the plasma sample and incubated at room temperature for 180 minutes. Then, the absorbance (ABS: 405 nm) was measured using a microplate reader (model plus 384, Molecular Devices, LLC), and the concentration of produced p-nitrophenol was calculated. The blank was subtracted from all measurement values to calculate TNAP activity at each time point with the TNAP activity of the sample before compound administration defined as 100%. The pharmaceutical effect of the test compound was evaluated by the average inhibition of plasma ALP (80-90% containing TNAP) activity for 6 hours from 0 hour to 6 hours after the administration of the test compound. It was calculated according to the following expression: 100−((plasma ALP activity at 0 hr+plasma ALP activity at 1 hr)*1/2+(plasma ALP activity at 1 hr+plasma ALP activity at 2 hr)*1/2+(plasma ALP activity at 2 hr+plasma ALP activity at 4 hr)*2/2+(plasma ALP activity at 4 hr+plasma ALP activity at 6 hr)*2/2)/6.

| Compound | Plasma ALP inhibition (6 h ave. inhibition %) [%] |
| --- | --- |
| COc1ccc(Br)cc1S(=O)(=O)[N-]c1cnc2c(c1)C(=O)N[C@@H](CO)CO2.[K+] [Example 53, Potassium [(5-bromo-2-methoxyphenyl)sulfonyl][(3S)-3-(hydroxymethyl)-5-oxo-2,3,4,5-tetrahydropyrido[3,2-f][1,4]oxazepin-7-yl]azanide] | 59.2 |
| COc1ccc(F)cc1S(=O)(=O)[N-]c1cnc2c(c1)C(=O)N[C@@H](CO)CO2.[K+] [Example 52, Potassium [(5-fluoro-2-methoxyphenyl)sulfonyl][(3S)-3-(hydroxymethyl)-5-oxo-2,3,4,5-tetrahydropyrido[3,2-f][1,4]oxazepin-7-yl]azanide] | 61.3 |
| COc1ccc(F)cc1S(=O)(=O)[N-]c1cnc2c(c1)C(=O)NC1(CC1)CO2.[K+] [Example 57, Potassium [(5-fluoro-2-methoxyphenyl)sulfonyl](5′-oxo-4′,5′-dihydrospiro[cyclopropane-1,3′-pyrido[3,2-f][1,4]oxazepin]-7′-yl)azanide] | 53.5 |
| COc1ccc(Cl)cc1S(=O)(=O)[N-]c1cnc2c(c1)C(=O)NCCO2.[K+] [Example 47, Potassium [(5-chloro-2-methoxyphenyl)sulfonyl](5-oxo-2,3,4,5-tetrahydropyrido[3,2-f][1,4]oxazepin-7-yl)azanide] | 54.7 |
| COc1ccc(OC)c(S(=O)(=O)[N-]c2cnc3c(c2)C(=O)NC2(CC2)CO3)c1.[K+] [Example 61, Potassium [(2,5-dimethoxyphenyl)sulfonyl](5′-oxo-4′,5′-dihydrospiro[cyclopropane-1,3′-pyrido[3,2-f][1,4]oxazepin]-7′-yl)azanide] | 67.5 |
| O=C1N[C@@H](CO)COc2ncc([N-]S(=O)(=O)c3cc(Cl)ccc3OC(F)(F)F)cc21.[K+] [Example 54, Potassium {[5-chloro-2-(trifluoromethoxy)phenyl]sulfonyl}[(3S)-3-(hydroxymethyl)-5-oxo-2,3,4,5-tetrahydropyrido[3,2-f][1,4]oxazepin-7-yl]azanide] | 74.8 |
| COc1ccc(Cl)cc1S(=O)(=O)[N-]c1cnc2c(c1)C(=O)NC1(CC1)CO2.[K+] [Example 55, Potassium [(5-chloro-2-methoxyphenyl)sulfonyl](5′-oxo-4′,5′-dihydrospiro[cyclopropane-1,3′-pyrido[3,2-f][1,4]oxazepin]-7′-yl)azanide] | 58.9 |
| O=C1NC2(CC2)COc2ncc([N-]S(=O)(=O)c3cc(Cl)ccc3OC(F)(F)F)cc21.[K+] [Example 58, Potassium {[5-chloro-2-(trifluoromethoxy)phenyl]sulfonyl}(5′-oxo-4′,5′-dihydrospiro[cyclopropane-1,3′-pyrido[3,2-f][1,4]oxazepin]-7′-yl)azanide] | 50.3 |
| COc1ccc(F)cc1S(=O)(=O)[N-]c1cnc2c(c1)C(=O)NCCO2.[K+] [Example 48, Potassium [(5-fluoro-2-methoxyphenyl)sulfonyl](5-oxo-2,3,4,5-tetrahydropyrido[3,2-f][1,4]oxazepin-7-yl)azanide] | 61.6 |
| O=C1NCCOc2ncc([N-]S(=O)(=O)c3cc(Cl)ccc3OC(F)(F)F)cc21.[K+] [Example 50, Potassium {[5-chloro-2-(trifluoromethoxy)phenyl]sulfonyl}(5-oxo-2,3,4,5-tetrahydropyrido[3,2-f][1,4]oxazepin-7-yl)azanide] | 56.0 |
| CCOc1ccc(F)cc1S(=O)(=O)[N-]c1cnc2c(c1)C(=O)NC1(CC1)CO2.[K+] [Example 59] | 66.2 |
| COc1ccc(Cl)cc1S(=O)(=O)[N-]c1cnc2c(c1)C(=O)N[C@@H](CO)CO2.[K+] [Example 51, Potassium [(5-chloro-2-methoxyphenyl)sulfonyl][(3S)-3-(hydroxymethyl)-5-oxo-2,3,4,5-tetrahydropyrido[3,2-f][1,4]oxazepin-7-yl]azanide] | 63.7 |
